Source: publication PMC7037732, “Synthesis of Combretastatin A-4 and 3′-Aminocombretastatin A-4 derivatives with Aminoacid Containing Pendants and Study of their Interaction with Tubulin and as Downregulators of the VEGF, hTERT and c-Myc Gene Expression” (Molecules, 2020)

Assays:
[1] = tested on: HT-29 (human colon adenocarcinoma); experiment: Inhibition of cell proliferation (MTT), HT-29; format: cell-based; details: Homo sapiens, 48 h of treatment (footnote), average ±SD of three experiments
From the text: (§1) The ability of the synthetic compounds to inhibit cell proliferation was established by means of their IC50 values towards the tumor cell lines HT-29 (human colon adenocarcinoma), MCF-7 (breast adenocarcinoma) and A-549 (human pulmonary adenocarcinoma), as well as towards the nontumor cell line HEK-293 (human embryonic kidney cells). Results for compounds derived from CA-4 are presented in Table 1, along with the calculated selectivity indexes SIA (for HT-29 cell line), SIB (for MCF-7 cell line) and SIc (for A-549 cell line), obtained by dividing the IC50 values of the nontumor cell line (HEK-293) by those of the corresponding tumor cell line. The higher the SI index, the higher the therapeutic safety margin.
(§2) Cell culture media were purchased from Gibco (Grand Island, NY, USA). Fetal bovine serum (FBS) was a product of Harlan-Seralab (Belton, U.K.). Supplements and other chemicals not listed in this section were obtained from Sigma Chemical Co. (St. Louis, MO, USA). Plastics for cell culture were supplied by Thermo Fischer Scientific Inc., Madrid, Spain. All tested compounds were dissolved in DMSO at a concentration of 10 μg/mL and stored at −20 °C until use. HT-29, MCF-7, A-549 and HEK-293 cell lines were maintained in a Dulbecco’s modified Eagle’s medium (DMEM) containing glucose (1 g/L), glutamine (2 mM), penicillin (50 IU/mL), streptomycin (50 μg/mL) and amphotericin B (1.25 μg/mL), supplemented with 10% FBS. Cells from human non-small lung carcinoma (clone A549; ATCC n°: CCL2, MD, USA) were routinely grown at 37 °C in a humidified atmosphere of 5% CO2. Cells were maintained in a standard medium composed of RPMI 1640 (Lonza, Group Ltd., Basel, Switzerland), supplemented with 10% fetal bovine serum (FBS), 2 mM L-glutamine and 1% penicillin and streptomycin (Invitrogen). Cells were free from mycoplasma as determined by MycoAlert tests (Lonza, Group Ltd., Basel, Switzerland).
(§3) A total of 5 × 10^3 HT-29, MCF-7 or HEK-293 cells in a total volume of 100 μL of their respective growth media were incubated with serial dilutions of the tested compounds. The 3-(4,5-dimethylthiazol-2-yl)-2,5-diphenyltetrazolium bromide (MTT; Sigma Chemical Co.) dye reduction assay in a 96-well microplate was used, as previously described. […] The resulting formazan was dissolved in 150 μL of 0.04 N HCl/2-propanol and read at 550 nm. All determinations were carried out in triplicate.

[2] = tested on: MCF-7 (breast adenocarcinoma); experiment: Inhibition of cell proliferation (MTT), MCF-7; format: cell-based, human; details: Homo sapiens, 48 h of treatment (footnote), average ±SD of three experiments
From the text: as §1, §2, §3

[3] = tested on: A-549 (human pulmonary adenocarcinoma); experiment: Inhibition of cell proliferation (MTT), A-549; format: cell-based; details: 48 h of treatment (footnote), average ±SD of three experiments
From the text: as §1
as §2, with “Switzerland). […]” for “Switzerland).”

[4] = tested on: HEK-293 (human embryonic kidney cells); experiment: Inhibition of cell proliferation (MTT), nontumor HEK-293; format: cell-based; details: Homo sapiens, 48 h of treatment (footnote), average ±SD of three experiments
From the text: as §1, §2, §3

purified tubulin = experiment: Critical concentration (CrC) for the assembly of purified tubulin in GAB; format: biochemical; details: compound 27.5 μM, tubulin 25 μM, glycerol (GAB) and GTP assembly buffer; control 7.9 ± 1.2
Protocol: The effect on the self-assembly of tubulin was determined by measuring the critical concentration (CrC).

A-549 cells = experiment: Cell cycle distribution by flow cytometry; format: cell-based, human; details: A-549, 24 h; for cells accumulated in the G2/M phase: control 14%
Protocol: The effects of some CA-4 derivatives on the cell cycle were evaluated in A-549 cells.
The effects of some AmCA-4 derivatives on the cell cycle were also evaluated in A-549 cells.
The supernatant and trypsinated cells were harvested and then centrifuged (1200 rpm, 5 min, 4 °C). The cell pellet was resuspended in 1 mL of cold 70% ethanol for 30 min at −20 °C. Cells were centrifuged (2000 rpm, 5 min, 4 °C) to remove ethanol, and then the cell pellet was resuspended in the staining mix containing 50 µg/mL propidium iodide (Molecular Probes, France) and 100 µg/mL RNAse A (Sigma, France) in PBS for 20 min at room temperature in darkness. Samples were analyzed on a Becton Dickinson FACScan flow cytometer using the CellQuest software, which was also used to determine the percentage of cells in the G2/M phases of the cell cycle. PI was excited at 488 nm, and fluorescence analyzed at 620 nm on channel Fl-2.

[5] = Homo sapiens, A549, 48 h, Table 1
[6] = Homo sapiens, A549, 48 h, Table 2
[7] = concentration per compound as in Tables 6 and 7

| SMILES | IC50 ([1]; HT-29, 48 h, Table 1) [µM] | IC50 ([2]; MCF7, 48 h, Table 1) [µM] | IC50 [3, 5] [µM] | IC50 ([4]; HEK293, 48 h, Table 1) [µM] | CrC (critical concentration) (purified tubulin) [µM] | IC50 ([1]; HT-29, 48 h, Table 2) [µM] | IC50 ([2]; MCF7, 48 h, Table 2) [µM] | IC50 [3, 6] [µM] | IC50 ([4]; HEK293, 48 h, Table 2) [µM] | further results |
| --- | --- | --- | --- | --- | --- | --- | --- | --- | --- | --- |
| COc1ccc(/C=C\c2cc(OC)c(OC)c(OC)c2)cc1OCC(=O)N[C@H](C(=O)O)C(C)O (stereo partly drawn) [Compound 4.7] | 34 ± 11 | 40 ± 9 | 41 ± 3 | 23 ± 9 | 10.1 ± 1.8 |  |  |  |  |  |
| COC(=O)[C@@H](CC(C)C)NC(=O)COc1cc(/C=C\c2cc(OC)c(OC)c(OC)c2)ccc1OC [Compound 5.2] | 26 ± 1 | 16 ± 3 | 22 ± 3 | 13 ± 3 |  |  |  |  |  | G0/G1 (A-549 cells; 100 μM): 43 ± 4%; G2/M (A-549 cells; 100 μM): 34 ± 1%; S (A-549 cells; 100 μM): 23 ± 4% |
| COC(=O)[C@@H](NC(=O)COc1cc(/C=C\c2cc(OC)c(OC)c(OC)c2)ccc1OC)C(C)C [Compound 3.2] | 24 ± 4 | 12 ± 6 | 24 ± 1 | 5 ± 2 | 11.7 ± 2.3 |  |  |  |  | G0/G1 (A-549 cells; 75 μM): 42 ± 3%; G2/M (A-549 cells; 75 μM): 44 ± 1%; S (A-549 cells; 75 μM): 14 ± 4% |
| COc1ccc(/C=C\c2cc(OC)c(OC)c(OC)c2)cc1NC(=O)[C@@H](CC(C)C)NC(=O)OCC1c2ccccc2-c2ccccc21 [Compound 9.2] |  |  |  |  | 6.5 ± 0.7 | 44 ± 6 | 3.1 ± 0.5 | 48 ± 3 | 2.4 ± 0.4 |  |
| COc1ccc(/C=C\c2cc(OC)c(OC)c(OC)c2)cc1NC(=O)[C@@H]1CCCN1 [Compound 8.6] |  |  |  |  | 8.4 ± 0.1 | 0.7 ± 0.2 | 3.1 ± 0.6 | 1.2 ± 0.3 | 2.4 ± 1.4 |  |
| COc1ccc(/C=C\c2cc(OC)c(OC)c(OC)c2)cc1OCC(=O)N[C@@H](C(=O)O)C(C)C [Compound 6.1] |  |  | 54 ± 7 |  | 9.4 ± 1.3 |  |  |  |  | IC50 ([1]; HT-29, Table 1): 45 ± 5 µM; IC50 ([2]; MCF7, Table 1): 46 ± 3 µM; IC50 ([4]; HEK293, Table 1): 39 ± 6 µM; G0/G1 (A-549 cells; 100 μM): 67 ± 2%; G2/M (A-549 cells; 100 μM): 13 ± 1%; S (A-549 cells; 100 μM): 20 ± 2%; Effect on the cell cycle (A-549 cells; [7]): do not exert any significant effect on the cells |
| COc1ccc(/C=C\c2cc(OC)c(OC)c(OC)c2)cc1NC(=O)[C@H](N)Cc1ccccc1 [Compound 10.3] |  |  |  |  | 7.7 ± 2.1 | 3.9 ± 0.8 | 2 ± 0.8 | 2.9 ± 0.5 | 3.5 ± 0.9 |  |
| COC(=O)[C@H](CO)NC(=O)COc1cc(/C=C\c2cc(OC)c(OC)c(OC)c2)ccc1OC [Compound 3.6] | 9 ± 3 | 7 ± 3 | 18 ± 4 | 7 ± 2 |  |  |  |  |  | G0/G1 (A-549 cells; 75 μM): 30 ± 9%; G2/M (A-549 cells; 75 μM): 53 ± 3%; S (A-549 cells; 75 μM): 17 ± 6%; cells accumulated in the G2/M phase (A-549 cells; [7]): 50–70% |
| COc1ccc(/C=C\c2cc(OC)c(OC)c(OC)c2)cc1NC(=O)[C@H]1CCCN1 [Compound 10.4] |  |  |  |  | 8.7 ± 1.2 | 4.4 ± 1.9 | 0.6 ± 0.14 | 7.03 ± 0.22 | 3 ± 0.6 |  |
| COC(=O)[C@@H](Cc1ccccc1)NC(=O)COc1cc(/C=C\c2cc(OC)c(OC)c(OC)c2)ccc1OC [Compound 5.3] | 12 ± 4 | 6 ± 1 | 10 ± 3 | 3.7 ± 1.6 |  |  |  |  |  | G0/G1 (A-549 cells; 50 μM): 38 ± 2%; G2/M (A-549 cells; 50 μM): 43 ± 1%; S (A-549 cells; 50 μM): 19 ± 2% |
| COc1ccc(/C=C\c2cc(OC)c(OC)c(OC)c2)cc1OCC(=O)N[C@@H](Cc1ccc(O)cc1)C(=O)O [Compound 4.8] |  |  | 30 ± 7 |  | 8.5 ± 2.0 |  |  |  |  | IC50 ([1]; HT-29, Table 1): 55 ± 5 µM; IC50 ([2]; MCF7, Table 1): 43 ± 7 µM; IC50 ([4]; HEK293, Table 1): 33 ± 1 µM |
| COc1ccc(/C=C\c2cc(OC)c(OC)c(OC)c2)cc1NC(=O)[C@@H](Cc1ccccc1)NC(=O)OCC1c2ccccc2-c2ccccc21 [Compound 9.3] |  |  |  |  | 6.6 ± 0.2 | 13 ± 5 | 4.5 ± 1.7 | 18.5 ± 1.7 | 11.2 ± 1.5 |  |
| COc1ccc(/C=C\c2cc(OC)c(OC)c(OC)c2)cc1NC(=O)[C@H](NC(=O)OCC1c2ccccc2-c2ccccc21)C(C)C [Compound 9.1] |  |  |  |  | 8.9 ± 1.5 | 5.5 ± 0.7 | 4.8 ± 0.5 | 7.34 ± 0.23 | 5.1 ± 0.7 |  |
| COC(=O)[C@H](Cc1ccccc1)NC(=O)COc1cc(/C=C\c2cc(OC)c(OC)c(OC)c2)ccc1OC [Compound 3.4] | 28 ± 7 | 8 ± 2 | < 10 | 4 ± 1 |  |  |  |  |  | IC50 ([3]; Table 1): 9 ± 2 µM; G0/G1 (A-549 cells; 50 μM): 33 ± 4%; G2/M (A-549 cells; 50 μM): 51 ± 2%; S (A-549 cells; 50 μM): 16 ± 5%; cells accumulated in the G2/M phase (A-549 cells; [7]): 50–70% |
| COC(=O)CNC(=O)COc1cc(/C=C\c2cc(OC)c(OC)c(OC)c2)ccc1OC [Compound 3.1] | 12 ± 2 | 8 ± 2 | 26 ± 2 | 9 ± 1 | 9.52 ± 0.05 |  |  |  |  |  |
| COC(=O)[C@H](NC(=O)COc1cc(/C=C\c2cc(OC)c(OC)c(OC)c2)ccc1OC)C(C)C [Compound 5.1] | 27 ± 7 | 9 ± 3 | < 10 | 3.9 ± 0.6 |  |  |  |  |  | IC50 ([3]; Table 1): 5 ± 1 µM; G0/G1 (A-549 cells; 25 μM): 53 ± 8%; G2/M (A-549 cells; 25 μM): 31 ± 7%; S (A-549 cells; 25 μM): 16 ± 2% |
| COc1ccc(/C=C\c2cc(OC)c(OC)c(OC)c2)cc1OCC(=O)N[C@@H](CO)C(=O)O [Compound 4.6] | 39 ± 16 | 27 ± 9 | 36 ± 4 | 17 ± 1 | 7.9 ± 1.6 |  |  |  |  |  |
| COc1ccc(/C=C\c2cc(OC)c(OC)c(OC)c2)cc1NC(=O)[C@@H]1CCCN1C(=O)OCC1c2ccccc2-c2ccccc21 [Compound 7.6] |  |  |  |  | 6.0 ± 0.5 | 0.32 ± 0.14 | 0.058 ± 0.012 | 1.33 ± 0.09 | 0.13 ± 0.03 |  |
